{"source": "paper PMC3525792", "about": "(Bioorganic & medicinal chemistry letters, 2012)", "target": "EGFP-hSERT (UniProt P31645+P42212, F64L/H231L/S65T)", "assay_type": "cell-based, human", "data": [{"smiles": "CCN(CC)c1ccc2c(-c3ccc(S(=O)(=O)NCCCCCC(=O)NCCC(=O)Nc4cccc(-c5ccc6c(c5)COC6(CCCN(C)C)c5ccc(F)cc5)c4)cc3S(=O)(=O)[O-])c3ccc(=[N+](CC)CC)cc-3oc2c1", "note": "(centres unmarked) [compound 8]", "values": [{"measurement": "labeling of EGFP-SERT in live cells in the presence of paroxetine", "setting": "20 nM 8, 37°C, preincubation with 1 μM paroxetine 30 min", "value": "no fluorescence was observed at the cell surface in the red channel"}, {"measurement": "labeling of EGFP-SERT in live cells", "setting": "20 nM 8, 60 min at 37°C, HEK293 EGFP-hSERT, without paroxetine", "value": "labels SERT with high specificity"}]}]}
